In brackets after ≈: the same amount, converted by molar mass. Bridge positions count the residues as written; N and C are the ends. Square brackets hold non-standard residues; d marks the D form. Peptide text beside a SMILES is read from it. * marks the point of attachment. X1 = CC[C@H](C)CCCCC(=O)*; Dab = NCC[C@H](N)C(=O)O
Key:
Format in all cases: cell-based
[1] = tested on: Staphylococcus aureus IFO12732; experiment: microbe, parasite or virus in culture; conditions: 10 mM Tris/HCl pH 7.5, 2 h incubation, colony count; for MBC: Staphylococcus aureus, IFO12732
Protocol: (§1) Microbicidal assay was performed as previously described. Briefly, each microbial strain in the mid-exponential phase was suspended in 10 mM Tris/HCl, pH 7.5. The microbial suspension was mixed with antimicrobials in the presence or absense of NP4P. After 2 h incubation, the suspension was diluted 1,000 times and inoculated on to plates of IFO702 medium. The number of colonies were counted, and a plot of peptide concentration vs colony number was created.

[2] = tested on: Escherichia coli JM109; conditions: for MBC, NP4P-: absence of NP4P, 10 mM Tris/HCl pH 7.5, 2 h incubation, colony count
Protocol: as §1, with “Briefly, each microbial strain in the mid-exponential phase was suspended in 10 mM Tris/HCl, pH 7.5.” left out

[3] = tested on: Serratia marcescens IFO3736; conditions: absence of NP4P; 10 mM Tris/HCl pH 7.5, 2 h incubation, colony count
Protocol: as §1

[4] = tested on: Pseudomonas aeruginosa IFO3899; conditions: absence of NP4P; 10 mM Tris/HCl pH 7.5, 2 h incubation, colony count
Protocol: as §1

[5] = tested on: Salmonella typhimurium IFO13245; conditions: absence of NP4P; 10 mM Tris/HCl pH 7.5, 2 h incubation, colony count
Protocol: as §1

SMILES | MBC ([1]; absence of NP4P) | MBC ([1]; presence of 20 μg/mL NP4P) | MBC, NP4P- [2] | MBC, NP4P- ([1]; absence of NP4P) | also measured
CC1(C)S[C@@H]2[C@H](NC(=O)[C@H](N)c3ccccc3)C(=O)N2[C@H]1C(=O)O [Ampicillin] | 250 µg/mL (≈ 715 µM) | 250 µg/mL | – | – | –
CCN1CCN(c2cc3c(cc2F)c(=O)c(C(=O)O)cn3C2CC2)CC1 [Enrofloxacin] | 0.25 µg/mL (≈ 0.696 µM) | 0.25 µg/mL | – | – | –
CC[C@H](C)[C@H](N)C(=O)N[C@@H](CC(C)C)C(=O)N1CCC[C@H]1C(=O)N[C@@H](Cc1c[nH]c2ccccc12)C(=O)N[C@@H](CCCCN)C(=O)N[C@@H](Cc1c[nH]c2ccccc12)C(=O)N1CCC[C@H]1C(=O)N[C@@H](Cc1c[nH]c2ccccc12)C(=O)N[C@@H](Cc1c[nH]c2ccccc12)C(=O)N1CCC[C@H]1C(=O)N[C@@H](Cc1c[nH]c2ccccc12)C(=O)N[C@@H](CCCNC(=N)N)C(=O)N[C@@H](CCCNC(=N)N)C(N)=O [Indolicidin] | – | – | 10 µg/mL (≈ 5.25 µM) | 10 µg/mL (≈ 5.25 µM) | –
NC[C@H]1O[C@H](O[C@H]2[C@H](O)[C@@H](O[C@H]3O[C@H](CO)[C@@H](O)[C@H](N)[C@H]3O)[C@H](N)C[C@@H]2N)[C@H](O)[C@@H](O)[C@@H]1O [Kanamycin] | – | – | – | 3 µg/mL (≈ 6.19 µM) | MBC, NP4P+ ([1]; presence of 20 μg/mL NP4P): 3 µg/mL
CC[C@H](C)CCCCC(=O)N[C@@H](CCN)C(=O)N[C@H](C(=O)N[C@@H](CCN)C(=O)N[C@H]1CCNC(=O)[C@H]([C@@H](C)O)NC(=O)[C@H](CCN)NC(=O)[C@H](CCN)NC(=O)[C@H](CC(C)C)NC(=O)[C@@H](Cc2ccccc2)NC(=O)[C@H](CCN)NC1=O)[C@@H](C)O [Polymyxin B] (X1-[Dab]T[Dab][Dab][Dab][dF]L[Dab][Dab]T; lactam 4-C (inferred); N-terminus assumed) | – | – | 3 µg/mL (≈ 2.49 µM) | – | MBC, NP4P- [3]: 5 µg/mL (≈ 4.15 µM); MBC, NP4P- [4]: 5 µg/mL (≈ 4.15 µM); MBC, NP4P- [5]: 5 µg/mL (≈ 4.15 µM); shift of bactericidal dose-effect curve to lower concentration ([2]; in the presence of 100 μg/mL NP4P, 10 mM Tris-HCl, pH 7.4): ~10 times lower concentration
